Test results reported in patent publication US9314510B2, “Human laminin α2 chain LG3 domain and active peptides promoting cell adhesion, spreading, migration, and neurite outgrowth” (SNU R&DB Foundation, priority 2011, dated 2016).
Ends that are not written are not given here.

How the values were obtained:
PC12 cells [1] = experiment: Effect of EDTA or MnCl2 pretreatment on cell adhesion and spreading; format: cell-based, rat; settings: 5 mM EDTA or 1 mM MnCl2, 15 min; for cell adhesion to laminin after pretreatment / cell adhesion to rLG3 or Ln2-LG3-P2 after pretreatment: 1 h; for cell spreading to laminin after pretreatment / cell spreading to rLG3 or Ln2-LG3-P2 after pretreatment: 3 h
Experimental: PC12 cells were pretreated with either 5 mM EDTA or 1 mM MnCl2 for 15 min at 37° C. and seeded on plates coated with rLG3 or the Ln2-LG3-P2 peptide. To measure cell adhesion, PC12 cells were incubated on the coated plates for 1 h and absorbance was measured. To measure cell spreading, PC12 cells were incubated on the coated plates for 3 h and relative cell area was measured using Image-Pro Plus software.

PC12 cells [2] = experiment: Cell adhesion inhibition assay: peptide pretreatment, adhesion to rLG3-coated plates; format: cell-based, rat; settings: PC12 cells pretreated with 500 μg/mL peptide; rLG3 25 μg/mL
Experimental: Specifically, PC12 cells were pretreated with the Ln2-LG3-P2 peptide in concentrations of 0, 0.2, 0.4, 0.6, 0.8, 1.0, or 1.2 μg/mL for 10 min at room temperature and then cultured on plates coated with rLG3 (25 μg/mL) for 1 h in serum-free medium.
PC12 cells were pretreated with 500 μg/mL of Ln2-LG3-P1, Ln2-LG3-P2, Ln2-LG3-P3, Ln2-LG3-P4, Ln2-LG3-P5 and SP (scramble peptide) (SEQ ID NO:20) for 10 min at room temperature and then cultured on plates coated with rLG3 (25 μg/mL) in serum-free medium. To observe cell adhesion, PC12 cells were incubated on the coated plates for 1 h and to observe cell spreading, PC12 cells were incubated on the coated plates for 3 h. To observe cell migration, cells were seed into the upper chamber of transwell filters coated with rLG3 (25 μg/mL) and cultured for 24 h. Cell migration was quantified by counting the number of cells that had migrated through the filter.
Specifically, PC12 cells were pretreated with Ln2-LG2-P2 (500 μg/mL) and Ln2-LG3-P2A (500 μg/mL) and then, cell adhesion was observed on plates coated with rLG3 (25 μg/mL).

PC12 cells [3] = experiment: Cell adhesion assay on coated plates (crystal violet, absorbance 570 nm); format: cell-based, rat
Experimental: The cell adhesion assay was performed as described in a paper published previously by the present inventors (Kim, J. M., et al, Exp. Cell Res, 2005).
Specifically, 24-well culture plates (Nunc, Denmark) were coated with 5 μg/mL human placental laminin (Sigma-Aldrich, St. Louis, Mo.) or 25 μg/mL rLG domain proteins for 12 h at 4° C. The peptides were also coated on the plates by drying for 12 h at room temperature. The substrate-coated plates were blocked with 1% heat-inactivated bovine serum albumin (BSA) in PBS for 1 h at 37° C. and then washed with PBS.
The cells were trypsinized with trypsin/EDTA and resuspended in serum-free culture medium. The cells were added at a density of 2×10^5 cells/500 μL to each plate and incubated in serum-free culture medium for 1 h at 37° C. After incubation, unattached cells were removed by rinsing twice with PBS. The attached cells were fixed with 10% formalin for 15 min and then stained with 0.5% crystal violet for 1 h. Plates were gently washed with distilled water three times and dissolved with 2% SDS for 5 min. Absorbance was measured at 570 nm using a microplate reader (BioRad).
First, PC12 cells were cultured on plates coated with varying amounts of five kinds of Ln2-PG3 peptides and then cell adhesion was observed. The peptides were coated in concentrations ranging from 0 to 125 μg/mL on plates by drying them for 12 h at room temperature.
(§1) The present inventors compared the cellular activities of Ln2-LG3-P2 peptide to scrambled peptide (SEQ ID NO:20, NWEIRCIPGNPF) of Ln2-LG3-P2 peptide and Ln2-LG3-P1 peptide to Ln2-LG3-P5 peptide at a concentration of 62.5 μg/mL where the cell adhesion activity was the maximum. […] PC12 cells were cultured on plates which were coated in the same way for 3 h in serum-free medium and the cell spreading was observed.
(§2) Specifically, to observe cell adhesion, spreading, migration, and neurite outgrowth promotion, the methods described in Experimental examples <2-1> to <2-3> were used and PC12 cells were cultured on plates coated with laminin (5 μg/mL), rLG3 (25 μg/mL), and rLG3-M1 (25 μg/mL) and observed. To observe cell adhesion, PC12 cells were incubated on the coated plates for 1 h and to observe cell spreading, PC12 cells were incubated on the coated plates for 3 h. To observe cell migration, PC12 cells were incubated on the coated plates for […].
(§3) To measure cell adhesion, spreading, migration, and neurite outgrowth promotive activities of PC12 cells using the prepared synthetic peptides that are N- and C-terminal truncated or C-terminal added peptides of the Ln2-LG3-P2 peptide, peptides described in Table 1 were coated onto plates at 62.5 μg/mL and PC12 cells were seeded thereon.

PC12 cells [4] = experiment: Cell spreading assay on coated plates (cell surface area); format: cell-based, rat; settings: 3 h, laminin 5 μg/mL, rLG proteins 25 μg/mL, peptides 62.5 μg/mL
Experimental: To determine cell spreading assays, the cells cultured on plates coated with each rLG domain protein for 1 h or 3 h in Experimental example <2-1> were fixed with 10% formalin. Then, the fixed cells were stained with 0.05% crystal violet for 1 h and plates were gently washed with PBS three times. The surface area of cells was measured with Image-Pro plus software (Version 4.5; Media Cybernetics, Silver Spring, Md.).
as §1, §2, §3

PC12 cells [5] = experiment: Cell migration assay (transwell migration chambers); format: cell-based, rat; settings: transwell filters coated with laminin 5 μg/mL, rLG proteins 25 μg/mL or peptides 62.5 μg/mL, 24 h
Experimental: Cell migration assays were performed using transwell migration chambers of 8 μm in pore size (Corning Inc., NY) as described in a paper published previously by the present inventors (Kim, J. M., Min, S. K., Kim, H., Kang, H. K., Jung, S. Y., Lee, S. H., Choi, Y., Roh, S., Jeong, D., and Min, B. M. (2007) Int. J. Mol. Med.).
The lower sides of transwell filters were coated with laminin (5 μg/mL) or rLG proteins (25 μg/mL) for 12 h at 4° C. The lower sides of transwell filters were blocked with 1% BSA in PBS for 1 h at 37° C. Cells were suspended at a density of 4×10^5 cells/mL in RPMI 1640 medium containing 0.5% FBS and 0.1% BSA. 100 μL of this suspension was seeded in the upper chamber of the transwell filter. Cells were allowed to migrate for 24 h at 37° C. and then fixed with 10% formalin for 15 min and stained with 0.5% crystal violet. Non-migrated cells in the upper chamber of transwell filters were removed with a cotton swab, viewed under a light microscope, and counted.
as §2

PC12 cells [6] = experiment: Immunostaining of actin stress fibers and focal adhesions; format: cell-based, rat; settings: PC12 cells on coated chamber slides, 3 h, serum-free
Experimental: Specifically, for immunostaining, PC12 cells were incubated on Lab-Tek chamber slides (Nalge Nunc International, Rochester, N.Y.) coated with laminin (5 μg/mL), rLG domain proteins (25 μg/mL), or Scrambled peptide (SP) (25 μg/well) in serum-free medium for 3 h at 37° C. Lab-Tek chamber slides were coated with BSA for the control. After rinsing with PBS, PC12 cells were fixed with 3.7% formalin for 20 min and permeabilized with 0.5% Triton X-100 for 5 min. PC12 cells were incubated with primary antibodies for 12 h at 4° C. The primary antibodies used were 1:500 anti-vinculin (Sigma-Aldrich 9131), or 1:300 rhodamin-phalloidin (Invitrogen R154) antibodies. After rinsing with PBS, PC12 cells were immunostained with FITC-conjugated anti-mouse IgG antibody (Jackson ImmunoResearch Laboratories, West Grove, Pa.) or rhodamin-conjugated anti-mouse IgG antibody (Santa Cruz Biotechnology) for 1 h at room temperature. After being washed three times with PBS, the stained PC12 cells were mounted and photographed using a confocal laser scanning microscope (FV300; Olympus, Japan).

PC12 cells [7] = experiment: Summary of cell adhesion, spreading, migration and neurite outgrowth promotive effects; format: cell-based, rat; settings: summary statement of the description
Experimental: as §3

PC12 cells [8] = settings: at the indicated concentrations and duration of treatment
PC12 cells [9] = experiment: Effect of calphostin C pretreatment on cell adhesion; format: cell-based, rat; settings: PC12 cells, 0.05, 0.1, 0.5 μM, 15 min; 1 h
Experimental: PC12 cells were pretreated with 0.05 μM, 0.1 μM, and 0.5 μM of calphostin C for 15 min at 37° C. and then incubated on plates coated with rLG3 or the Ln2-LG3-P2 peptide for 1 h.

PC12 cells [10] = experiment: Neurite outgrowth assay; format: cell-based, rat; settings: PC12 cells on coated plates, serum-free, 24 h + 72 h
Experimental: Laminin, rLG domain protein, and the peptide were coated onto plates and cells were seeded on the plates in serum-free medium and incubated for 24 h. After changing with serum-free medium again, cells were further cultured for 72 h and neurite outgrowth was examined.

PC12 cells [11] = experiment: Inhibition of cell adhesion to laminin by rLG3 / rLG3-M1 pretreatment; format: cell-based, rat; settings: PC12 cells pretreated with 250 μg/mL; laminin 5 μg/mL
Experimental: In addition, PC12 cells were pretreated with rLG3 (250 or 500 μg/mL) or vehicle (phosphate buffer, pH 3.0) for 30 min and then seeded on plates coated with laminin (5 μg/mL) for 30 min in serum-free medium and cell adhesion was observed.

O=C(O)CN(CCN(CC(=O)O)CC(=O)O)CC(=O)O [EDTA]
cell adhesion to laminin after pretreatment (PC12 cells [1]): completely inhibited | cell adhesion to rLG3 or Ln2-LG3-P2 after pretreatment (PC12 cells [1]): partially inhibited | cell spreading to laminin after pretreatment (PC12 cells [1]): completely inhibited | cell spreading to rLG3 or Ln2-LG3-P2 after pretreatment (PC12 cells [1]): partially inhibited

[Cl][Mn][Cl] [Mn^2+, MnCl2]
cell adhesion to laminin after pretreatment (PC12 cells [1]): significantly enhanced | cell adhesion to rLG3 or Ln2-LG3-P2 after pretreatment (PC12 cells [1]): significantly enhanced | cell spreading to laminin after pretreatment (PC12 cells [1]): significantly enhanced | cell spreading to rLG3 or Ln2-LG3-P2 after pretreatment (PC12 cells [1]): significantly enhanced

Ln2-LG3-P2A: Ln2-LG3-P2 peptide synthesized by substituting Arg with Ala (ANIPPFEGCIWN-NH2)
inhibition of cell adhesion to rLG3 (in words) (PC12 cells [2]): did not inhibit | cell adhesion compared to the control group Ln2-LG3-P2 (PC12 cells [3]; PC12 cells on plates coated with peptide (500 μg/mL, FIG. 3H)): significantly inhibited

NWEIRCIPGNPF (NWEIRCIPGNPF-NH2) [scrambled peptide, scrambled peptide of Ln2-LG3-P2 peptide, negative control, reference compound]
cell spreading (PC12 cells [4]): entirely ineffective | cell migration (PC12 cells [5]): entirely ineffective | actin stress fiber formation and focal adhesions (PC12 cells [6]): did not organize actin stress fibers | cell spreading (immunostaining) (PC12 cells [6]): no effect on spreading

PFEGCIWN (PFEGCIWN-NH2) [Ln2-LG3-P2-DN4, N-terminal truncated Ln2-LG3-P2]
cell migration (PC12 cells [5]): did not show cell migration activity

PPFEGCIWN (PPFEGCIWN-NH2) [Ln2-LG3-P2-DN3, N-terminal truncated Ln2-LG3-P2]
cell adhesion, spreading, migration, and neurite outgrowth promotive effects (PC12 cells [7]): significantly excellent

RNIPPFEGCIWNLVINSVPMDFAR (RNIPPFEGCIWNLVINSVPMDFAR-NH2) [Ln2-LG3-P2-AC1, C-terminal added Ln2-LG3-P2]
cell adhesion, spreading, migration, and neurite outgrowth promotive effects (PC12 cells [7]): significantly excellent

RNIPPFEGCIWNLVINSVPMDFARPVSFKNADIGRC (RNIPPFEGCIWNLVINSVPMDFARPVSFKNADIGRC-NH2; cysteine pairing not given here) [Ln2-LG3-P2-AC2, C-terminal added Ln2-LG3-P2]
cell adhesion, spreading, migration, and neurite outgrowth promotive effects (PC12 cells [7]): significantly excellent

calphostin C
cell growth (PC12 cells [8]): did not affect cell growth | cell adhesion activities to laminin, rLG3, and Ln2-LG3-P2 after inhibitor pretreatment (PC12 cells [9]): significantly inhibited in a dose-dependent manner

rLG3-M1: mutant rLG3 protein, Arg in the Ln2-LG3-P2 site substituted with Ala (ANIPPFEGCIWN) (rLG3-M1)
cell spreading (PC12 cells [4]): significantly reduced levels | neurite outgrowth (PC12 cells [10]): significantly reduced levels | inhibition of cell adhesion to laminin (in words) (PC12 cells [11]): did not inhibit | cell migration (PC12 cells [5]): significantly reduced levels | cell adhesion (PC12 cells [3]; PC12 cells on coated plates, 1 h, serum-free, laminin 5 μg/mL, rLG proteins 25 μg/mL, peptides 62.5 μg/mL (0 to 125 μg/mL in FIG. 2B)): significantly reduced levels
